Assay results as given in patent US20260256716A1, “COMPOSITIONS AND METHODS OF USE THEREOF” (Board of Supervisors of Louisiana State University and …, priority 2023, published 2026).

Assays:
Type in all cases: cell-based, human
[1] = test system: ARPE-19 cells; assay: Hyperglycemia induced SA-β-Gal cellular senescence in ARPE-19 cells (HPLM); conditions: 10 nM; HPLM with 5, 10, 20 or 30 mM glucose, 72 hours
Procedure: Consistent with Retinal Deterioration by Glucose-Induced Cellular Senescence in the Diabetic Population, Hyperglycemic conditions induce increased disease promoting Cellular Senescence that is abrogated by low nM concentrations of the Representative 5-HT2A Receptor Agonist, R-DOI Returning to Base-line Homeostatic Levels. ARPE-19 cells in physiologically relevant media (HPLM; 7% FCS) were seeded overnight prior to being replaced with starvation media (HPLM 0.5% FCS) containing 10 nM R-DOI. After overnight incubation in starvation media, cells were swapped to media containing diabetic blood glucose levels (HPLM 7% FCS containing 5 mM, 10 mM, 20 mM, or 30 mM glucose) for 72-hours. After the 72-hour incubation, cells were fixed and stained for SA-β-Gal for 6-hours. Cells nuclei were then stained with DAPI for total-cell enumeration. SA-β-Gal positive cells, and total cells per frame, were quantified by microscopy. Pathological/diabetic glucose concentrations induce cellular senescence. 5-HT2A receptor agonism alleviates glucose-induced senescence at diabetic blood glucose levels. […]
Effects of specific phenethylamine 5-HT2A receptor agonists on reduction of Hyperglycemia induced Disease Promoting Cellular Senescence: Inhibition of Cell Senescence and Disease Processes are Drug and Dose Dependent. […] SA-3-Gal positive cells, and total cells per frame, were quantified by microscopy. For each 5-HT2A agonist assessed, the % of senescent cells is expressed relative to the hyperglycemic control. […]
Inhibition of Cell Senescence and Disease Processes are Drug and Dose Dependent. […] SA-β-Gal positive cells, and total cells per frame, were quantified by microscopy. For each 5-HT2A agonist assessed, the % of senescent cells is expressed relative to the hyperglycemic control. […]

[2] = test system: ARPE-19 cells; assay: SA-β-Gal cellular senescence in ARPE-19 cells in nutrient rich media (DMEM); conditions: 10 nM in starvation media overnight, then DMEM 7% FCS 72 hours
Procedure: ARPE-19 cells in nutrient rich media (DMEM; 7% FCS) were seeded overnight prior to being replaced with starvation media (DMEM; 0.5% FCS) containing 10 nM R-DOI or 10 nM M100,907. After overnight incubation in starvation media with drug, cells were swapped to DMEM 7% FCS media for 72-hours. After the 72-hour incubation, cells were fixed and stained for SA-β-Gal for 6-hours. Cells nuclei were then stained with DAPI for total-cell enumeration. SA-β-Gal positive cells, and total cells per frame, were quantified by microscopy.

[3] = test system: intracellular H2O2; assay: Intracellular H2O2 (ROS-Glo bioluminescence) in ARPE-19 cells at diabetic glucose concentrations; conditions: 10 nM; glucose 5, 10, 20, 30 mM; 72 hours
Procedure: Hyperglycemic conditions induce increased disease promoting ROS production that is abrogated by low nM concentrations of the Representative 5-HT2A Receptor Agonist. R-DOI Returning to Base-line Homeostatic Levels. ARPE-19 cells were plated using physiological media (HPLM; 7% FCS) overnight prior to starvation (HPLM 0.5% FCS) overnight with or without 10 nM R-DOI. Cells were then replaced with HPLM 7% FCS containing a range of glucose concentrations spanning diabetic blood glucose levels (5 mM, 10 mM, 20 mM, and 30 mM) with or without the addition of 10 nM R-DOI for 72-hours. Cells were then lysed to quantify intracellular H2O2 levels via bioluminescence as described above. Low dose 5-HT2A agonists abrogate the hyperglycemic induced induction od ROS that is pathophysiological for development and progression of neurodegenerative and ocular age-related diseases, especially within diabetic patients, or patients that have conditions that induce increased levels of blood glucose. Pathological glucose concentrations increase intracellular H2O2. 5-HT2AR agonism alleviates glucose-induced intracellular H2O2 at diabetic glucose concentrations.
Evaluating intracellular reactive oxygen species (ROS) levels (FIG. 67). Promega's ROS-Glo H2O2 assay enables researchers to evaluate intracellular ROS levels. […]

[4] = test system: phosphorylated myosin light chain; assay: Western blot of phosphorylated myosin light chain (MLC) in ARPE-19 cells under hyperglycemic conditions; conditions: ARPE-19, DMEM High glucose 7% FCS overnight; 10 nM; western blot
Procedure: A Hallmark of Age-Associated Ocular and Neurodegenerative Disorders is Cytoskeletal Alteration and Induction of CONTRACTILE Stress Fiber Formation. Expression and activation via phosphorylation of Myosin Light Chain (MLC), is a biomarker of disease development. ARPE-19 cells and ARPE-19 cells specifying 5-HT2AR knockouts were plated in nutrient rich media (DMEM; 7% FCS) overnight. Cells were fixed, permeabilized, and stained phalloidin and α-phosphorylated-Myosin light chain. Cytoskeletal elements were then visualized by fluorescent microscopy to visualize actin fiber cytoskeletal structures (phalloidin, red) and contractile phosphorylated myosin light chain (green) via fluorescent microscopy. […] ARPE-19 cells were cultured under hyperglycemic conditions in nutrient rich media (DMEM High glucose; 7% FCS) overnight either in the absence or presence of 5-HT2A receptor agonists R-DOI and 2CiBu at 10 nm or 100 nM concentrations. The relative expression of the activated disease biomarker contractile phosphorylated myosin light chain was determined using specific antibodies and western blot analysis. 5-HT2A agonists. […] Therefore, 5-HT2A agonism at low concentrations have the potential to prevent and reverse deleterious cytoskeletal events that can be induced under hyperglycemic conditions, such as in diabetics.
This can be consistent with 2C-iBu being able to regulate IOP and that 5HT2A agonists prevented edema formation and disruption of corneal architecture in a model of herpetic keratitis.

With `COc1cc(C[C@@H](C)N)c(OC)cc1I` (single isomer, unassigned) [R-DOI, R enantiomer 2,5-Dimethoxy-4-iodoamphetamine] the “hyperglycemia induced cellular senescence (SA-β-Gal positive cells)” value [1] was “abrogated”, the “cellular senescence (SA-β-Gal positive cells)” value [2] was “Decreases Basal Levels of Cellular Senescence” and the “hyperglycemia induced ROS production (intracellular H2O2)” value [3] was “abrogated”. The “hyperglycemia induced phosphorylated MLC levels” value [4] was “suppressed hyperglycemia induced phosphorylated MLC levels”.
